Several values for one entry are separate records, joined by “and”; a condition that tells them apart may be missing. Identical values can stand only once. One block for each molecule: values may come before it.
What was measured:
[1] = UV absorption (λmax, εmax) in solution; format: physicochemical

Molecule: 2-(1-benzyl-1H-pyrrol-2-yl)-4,6-bis[4-(H-imidazo[1,2-a]pyridin-2-yl)phenylamino]-1,3,5-triazine [Example 10]
- UV λmax ([1]; DMSO): 338 nm
- εmax ([1]; DMSO): 55000 M⁻¹ cm⁻¹

Molecule: Oc1ccc(-c2nc(-c3ccc(O)cc3O)nc(-c3cccn3Cc3ccccc3)n2)c(O)c1 [Example 1 b), 2-(1-benzyl-1H-pyrrol-2-yl)-4,6-bis(2,4-dihydroxyphenyl)-1,3,5-triazine]
- melting point: > 275 °C

Molecule: CCCCC(CC)COc1ccc(-c2nc(-c3ccc(OCC(CC)CCCC)cc3O)nc(-c3cccn3Cc3ccccc3)n2)c(O)c1 (stereo not drawn) [Example 1, 2-(1-benzyl-1H-pyrrol-2-yl)-4,6-bis[4-(2-ethylhexyloxy)-2-hydroxyphenyl]-1,3,5-triazine]
- melting point: 66 to 68 °C
- εmax ([1]; chloroform): 66000 M⁻¹ cm⁻¹
- λmax ([1]; chloroform): 350-352 nm

Molecule: CCCCOC(=O)c1ccc(Nc2nc(Nc3ccc(C(=O)OCCCC)cc3)nc(-c3cccn3Cc3ccccc3)n2)cc1 [Example 2, 2-(1-benzyl-1H-pyrrol-2-yl)-4,6-bis[4-(butoxycarbonyl)phenylamino]-1,3,5-triazine]
- melting point: 173 to 174 °C
- εmax ([1]; chloroform): 64000 M⁻¹ cm⁻¹
- λmax ([1]; chloroform): 312 nm

Molecule: c1ccc(Cn2cccc2-c2nc(Nc3ccc(-c4ccccc4)cc3)nc(Nc3ccc(-c4ccccc4)cc3)n2)cc1 [Example 3, 2-(1-benzyl-1H-pyrrol-2-yl)-4,6-bis(biphenyl-4-ylamino)-1,3,5-triazine]
- melting point: 185 to 186 °C
- UV λmax ([1]; ethanol): 309 nm
- εmax ([1]; ethanol): 73000 M⁻¹ cm⁻¹

Molecule: CCCCOC(=O)c1ccc(Nc2nc(Nc3ccc(C(=O)OCCCC)cc3)nc(-c3cccn3C(c3ccccc3)c3ccccc3)n2)cc1 [Example 7, 2-(1-benzydryl-1H-pyrrol-2-yl)-4,6-bis[4-(butoxycarbonyl)phenylamino]-1,3,5-triazine]
- melting point: 80 to 82 °C
- UV λmax ([1]; ethanol): 315 nm
- εmax ([1]; ethanol): 81000 M⁻¹ cm⁻¹

Next, values leading:

- melting point: 115 to 118 °C
- UV λmax ([1]; ethanol): 330 nm
- εmax ([1]; ethanol): 80000 M⁻¹ cm⁻¹
Molecule: O=C(c1ccccc1)c1ccc(Nc2nc(Nc3ccc(C(=O)c4ccccc4)cc3)nc(-c3cccn3Cc3ccccc3)n2)cc1 [Example 4, 2-(1-benzyl-1H-pyrrol-2-yl)-4,6-bis(4-benzoylphenylamino)-1,3,5-triazine]

- melting point: 140 to 142 °C
- UV λmax ([1]; ethanol): 292 nm
- εmax ([1]; ethanol): 77000 M⁻¹ cm⁻¹
Molecule: O=C1c2ccccc2-c2cc(Nc3nc(Nc4ccc5c(c4)-c4ccccc4C5=O)nc(-c4cccn4Cc4ccccc4)n3)ccc21 [Example 5, 2-(1-benzyl-1H-pyrrol-2-yl)-4,6-bis(9-oxo-9H-fluoren-3-ylamino)-1,3,5-triazine]

- UV λmax ([1]; ethanol): 332 nm
- εmax ([1]; ethanol): 71000 M⁻¹ cm⁻¹
Molecule: c1ccc(Cn2cccc2-c2nc(Nc3ccc(-c4cn5ccccc5n4)cc3)nc(Nc3ccc(-c4cn5ccccc5n4)cc3)n2)cc1 [Example 6, 2-(1-benzyl-1H-pyrrol-2-yl)-4,6-bis[4-(imidazo[1,2-a]pyridin-2-yl)phenylamino]-1,3,5-triazine]

- UV λmax ([1]; CHCl3/MeOH): 315 nm
- εmax ([1]; CHCl3/MeOH): 76000 M⁻¹ cm⁻¹
Molecule: CCCCC(CC)COC(=O)c1ccc(Nc2nc(Nc3ccc(C(=O)OCC(CC)CCCC)cc3)nc(-c3cccn3Cc3ccccc3)n2)cc1 (stereo not drawn) [Example 9, 2-(1-benzyl-1H-pyrrol-2-yl)-4,6-bis[4-((2-ethylhexyloxy)carbonyl)phenylamino]-1,3,5-triazine]

- UV λmax ([1]; CHCl3/MeOH): 327 nm
- εmax ([1]; CHCl3/MeOH): 100000 M^1 cm^−1
Molecule: c1ccc(Cn2cccc2-c2nc(Nc3ccc(-c4nc5ccccc5[nH]4)cc3)nc(Nc3ccc(-c4nc5ccccc5[nH]4)cc3)n2)cc1 [Example 11, 2-(1-benzyl-1H-pyrrol-2-yl)-4,6-bis[4-(1H-benzo[d]imidazol-2-yl)phenylamino]-1,3,5-triazine]

- UV λmax ([1]; MeOH): 307 nm
- εmax ([1]; MeOH): 67000 M⁻¹ cm⁻¹
Molecule: c1ccc(Cn2cccc2-c2nc(Nc3ccc(-n4cccn4)cc3)nc(Nc3ccc(-n4cccn4)cc3)n2)cc1 [Example 12, 2-(1-benzyl-1H-pyrrol-2-yl)-4,6-bis[4-(1H-pyrazol-1-yl)phenylamino]-1,3,5-triazine]

- UV λmax ([1]; MeOH): 263 nm and 308 nm
- εmax ([1]; MeOH, at λmax=263 nm): 54000 M⁻¹ cm⁻¹
- εmax ([1]; MeOH, at λmax=308 nm): 52000 M⁻¹ cm⁻¹
Molecule: c1ccc(Cn2cccc2-c2nc(Nc3ccc4ccccc4c3)nc(Nc3ccc4ccccc4c3)n2)cc1 [Example 13, 2-(1-benzyl-1H-pyrrol-2-yl)-4,6-bis[naphthalen-2-ylamino]-1,3,5-triazine]

- UV λmax ([1]; MeOH): 336 nm
- εmax ([1]; MeOH): 57000 M⁻¹ cm⁻¹
Molecule: CCOC(=O)/C=C/c1ccc(Nc2nc(Nc3ccc(/C=C/C(=O)OCC)cc3)nc(-c3cccn3Cc3ccccc3)n2)cc1 [Example 14, 2-(1-benzyl-1H-pyrrol-2-yl)-4,6-bis[4-((E)-3-ethoxy-3-oxoprop-1-enyl)phenylamino]-1,3,5-triazine]

- UV λmax ([1]; CHCl3): 336 nm
- εmax ([1]; CHCl3): 102000 M^1 cm^−1
Molecule: C(=C\c1ccc(Nc2nc(Nc3ccc(/C=C/c4ccccc4)cc3)nc(-c3cccn3Cc3ccccc3)n2)cc1)/c1ccccc1 [Example 15, 2-(1-benzyl-1H-pyrrol-2-yl)-4,6-bis[4-(E)-styrylphenylamino]-1,3,5-triazine]
